According to publication PMC5434891, “Tetramethylpyrazine blocks TFAM degradation and up-regulates mitochondrial DNA copy number by interacting with TFAM” (Bioscience Reports, 2017):
Values belong to the molecule of their own block, whether it stands above or below them.

Columns and labels:
[1] = target: T1, Lon (human mitochondrial Lon protease) (Homo sapiens, UniProt P36776); test: ADP-Glo ATPase assay with purified Lon; about […] activity left at […]; assay type: biochemical
T1 construct: gene LONP1
T1 sequence (P36776 68-959): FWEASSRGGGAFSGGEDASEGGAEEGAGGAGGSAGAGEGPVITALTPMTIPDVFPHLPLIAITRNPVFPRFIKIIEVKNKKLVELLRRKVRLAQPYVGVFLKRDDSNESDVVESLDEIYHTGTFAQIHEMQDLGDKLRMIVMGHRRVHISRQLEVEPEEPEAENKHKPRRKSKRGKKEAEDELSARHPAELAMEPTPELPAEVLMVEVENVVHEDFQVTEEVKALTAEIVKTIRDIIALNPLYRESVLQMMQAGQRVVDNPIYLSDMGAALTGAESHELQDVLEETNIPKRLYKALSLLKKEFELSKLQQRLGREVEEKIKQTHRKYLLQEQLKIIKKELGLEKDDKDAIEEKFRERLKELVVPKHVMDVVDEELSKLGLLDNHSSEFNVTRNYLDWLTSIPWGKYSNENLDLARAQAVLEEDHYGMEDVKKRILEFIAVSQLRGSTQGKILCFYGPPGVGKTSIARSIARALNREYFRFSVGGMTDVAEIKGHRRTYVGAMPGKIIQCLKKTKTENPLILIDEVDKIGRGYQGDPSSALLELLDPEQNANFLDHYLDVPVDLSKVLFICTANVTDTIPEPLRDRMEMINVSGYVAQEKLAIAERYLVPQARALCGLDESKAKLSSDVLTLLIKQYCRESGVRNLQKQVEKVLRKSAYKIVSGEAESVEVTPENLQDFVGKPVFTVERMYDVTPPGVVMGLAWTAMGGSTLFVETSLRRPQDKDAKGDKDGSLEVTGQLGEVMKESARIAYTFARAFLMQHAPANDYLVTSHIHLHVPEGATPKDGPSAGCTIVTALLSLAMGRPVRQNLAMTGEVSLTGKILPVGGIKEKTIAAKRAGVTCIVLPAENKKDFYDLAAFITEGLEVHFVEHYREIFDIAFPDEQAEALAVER

[2] = target: T2, TFAM (mitochondrial transcription factor A) (Homo sapiens, UniProt Q00059); test: protection of purified TFAM from degradation by purified Lon (Western blot); binding itself shown only with the biotinylated conjugate; assay type: biochemical
T2 sequence (Q00059 43-246): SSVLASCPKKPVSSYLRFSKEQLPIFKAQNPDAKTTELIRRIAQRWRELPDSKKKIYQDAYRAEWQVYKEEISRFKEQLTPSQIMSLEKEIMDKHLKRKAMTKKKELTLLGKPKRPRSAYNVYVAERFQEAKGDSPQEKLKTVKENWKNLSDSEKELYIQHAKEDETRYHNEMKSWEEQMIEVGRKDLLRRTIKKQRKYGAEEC
T2 sequence (P36776 68-959 partner): T1 sequence (P36776 68-959)

[3] = target: T3, TFAM (mitochondrial transcription factor A) (Homo sapiens, UniProt Q00059); test: streptavidin-sepharose pull-down from cell extracts, immunoblot ([…]); assay type: cell-based
T3 construct: endogenous TFAM in HeLa ρ+ and HCT116 cell extracts
T3 sequence (Q00059 43-246): T2 sequence (Q00059 43-246)

Compound: CC1(C)CC[C@]2(C(=O)O)CC[C@]3(C)[C@H](C(=O)C=C4[C@@]5(C)C=C(C#N)C(=O)C(C)(C)[C@@H]5CC[C@]43C)[C@@H]2C1 [CDDO, 2-cyano-3,12-dioxooleana-1,9(11)-dien-28-oic acid]
ADP-Glo ATPase assay with purified Lon; about 10% activity left at 200 μM [1]: CDDO inhibited the ATPase activity of Lon in a dose-dependent manner

protection of purified TFAM from degradation by purified Lon (Western blot); bin [2]: ~ 20 mM
Compound: Cc1nc(C)c(C)nc1C [TMP, 2,3,5,6-tetramethylpyrazine]

Compound: Cc1nc(C)c(COC(=O)CCCC[C@@H]2SC[C@@H]3NC(=O)N[C@@H]32)nc1C [biotinylated TMP]
streptavidin-sepharose pull-down from cell extracts, immunoblot (10 μM) [3]: TFAM was specifically pulled down only in complexes containing biotinylated-TMP and SA-sepharose
